Experimental data taken from patent publication US10227360B2, “Compounds for use as GPR120 agonists” (PIRAMAL ENTERPRISES LIMITED, priority 2014, dated 2019).

Each molecule was assayed against GPR120L receptor (Homo sapiens (Human), UniProt Q5NUL3) (assay: Beta (β) arrestin 2 Interaction Assay (BRET assay), β-galactosidase enzyme fragment complementation). Conditions: CHO-K1 cells stably expressing the GPR120L receptor; β-arrestin recruitment; 2 hours incubation.
Assay type: cell-based
Description: Beta (β) arrestin 2 Interaction Assay (BRET assay) was performed using CHO-K1 cells stably expressing the GPR120L receptor using β-galactosidase (Beta gal) enzyme fragment complementation assay. The measurement of GPR120 activation upon agonist activation was directly provided by β-arrestin recruitment. One day before the β-arrestin 2 assay, CHO-K1 cells were seeded and incubated overnight at 37° C. in a 5% CO2 humidified atmosphere. Cells were treated with the test compounds in the various concentrations ranging from 30 μM to 1 nM and incubated for 2 hours for GPCR (GPR120) activation. Extent of Arrestin recruitment was measured by adding detection reagents for Beta gal complementation assay and was further incubated for 1 hour. The chemi-luminescent signal was detected on Polar Star (BMG Labtech). The dose-response curve was analyzed using Sigma Plot/Graph Pad. The EC50 (concentration of the test compounds where 50% of compounds' maximal activity is observed) values were calculated from the dose-response curve.

GPR120L receptor, sequence (Q5NUL3 other isoform, or with tags, fused parts or gaps): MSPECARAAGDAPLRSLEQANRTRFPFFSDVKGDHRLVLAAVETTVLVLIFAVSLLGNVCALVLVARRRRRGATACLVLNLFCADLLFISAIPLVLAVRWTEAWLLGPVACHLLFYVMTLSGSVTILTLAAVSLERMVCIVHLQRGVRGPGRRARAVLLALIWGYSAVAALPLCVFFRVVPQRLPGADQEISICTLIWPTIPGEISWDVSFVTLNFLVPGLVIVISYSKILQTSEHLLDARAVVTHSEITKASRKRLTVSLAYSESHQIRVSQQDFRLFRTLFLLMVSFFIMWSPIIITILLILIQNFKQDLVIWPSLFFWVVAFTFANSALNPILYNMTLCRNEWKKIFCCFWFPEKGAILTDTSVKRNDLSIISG

SMILES | EC50 [nM]
O=C(O)CCc1ccc(OCc2cc(F)ccc2-c2ccc3c(c2)CC3)cn1 [Example 20, 3-(5-((2-(Bicyclo[4.2.0]octa-1(6),2,4-trien-3-yl)-5-fluorobenzyl)oxy)pyridin-2-yl)propanoic acid] | 500 to 5000
O=C(O)CCCc1ccc(OCc2cc(F)ccc2-c2ccc3c(c2)CCCC3)cc1 [Example 9, 4-(4-((5-Fluoro-2-(5,6,7,8-tetrahydronaphthalen-2-yl)benzyl)oxy)phenyl)butanoic acid] | 10 to 500
COC1CCCc2cc(-c3ccc(F)cc3COc3ccc(CCCC(=O)O)cc3)ccc21 (centres unmarked) [Example 38, 4-(4-((5-Fluoro-2-(5-methoxy-5,6,7,8-tetrahydronaphthalen-2-yl)benzyl)oxy)phenyl)butanoic acid] | 5000 to 50000
N#CC1(c2ccc(-c3ccncc3COc3ccc(CCCC(=O)O)cc3)cc2)CC1 [Example 19, 4-(4-((4-(4-(1-Cyanocyclopropyl)phenyl)pyridin-3-yl)methoxy)phenyl)butanoic acid] | 500 to 5000
N#CC1(c2ccc(-c3ccc(F)cc3COc3ccc(CCCC(=O)O)cc3)cc2)CC1 [Example 4, 4-(4-((4′-(1-Cyanocyclopropyl)-4-fluoro-[1,1′-biphenyl]-2-yl)methoxy)phenyl)butanoic acid] | 10 to 500
O=C(O)CCCc1ccc(OCc2cc(F)ccc2-c2ccc(C3(F)CC3)s2)cc1 [Example 42, 4-(4-((5-Fluoro-2-(5-(1-fluorocyclopropyl)thiophen-2-yl)benzyl)oxy)phenyl)butanoic acid] | 5000 to 50000
CC1(c2ccc(-c3ccc(F)cc3COc3ccc(CCCC(=O)O)cc3)s2)CC1 [Example 40, 4-(4-((5-Fluoro-2-(5-(1-methylcyclopropyl)thiophen-2-yl)benzyl)oxy)phenyl)butanoic acid] | 10 to 500
O=C(O)CCCc1ccc(OCc2ccccc2-c2ccc3c(c2)CCCC3)cc1 [Example 27, 4-(4-((2-(5,6,7,8-tetrahydronaphthalen-2-yl)benzyl)oxy)phenyl)butanoic acid] | 10 to 500
O=C(O)CCCc1ccc(OCc2cc(F)ccc2-c2ccc3c(c2)CC3)cc1 [Example 10, 4-(4-((2-(Bicyclo[4.2.0]octa-1(6),2,4-trien-3-yl)-5-fluorobenzyl)oxy)phenyl)butanoic acid] | 10 to 500
C=C1CCCc2cc(-c3ccc(F)cc3COc3ccc(CCCC(=O)O)cc3)ccc21 [Example 36, 4-(4-((5-Fluoro-2-(5-methylene-5,6,7,8-tetrahydronaphthalen-2-yl)benzyl)oxy)phenyl)butanoic acid] | 10 to 500
O=C(O)CCCc1ccc(OCc2cc(F)ccc2-c2scnc2C2CC2)cc1 [Example 32, 4-(4-((2-(4-Cyclopropylthiazol-5-yl)-5-fluorobenzyl)oxy)phenyl)butanoic acid] | 5000 to 50000
